Results: patent US8853258B2, “C-linked hydroxamic acid derivatives useful as antibacterial agents” (Pfizer Inc., priority 2009, dated 2014)
≈ marks a conversion by molar mass, not a printed value. Where two headings read alike, the source gives them in different places.

Key:
Type in all cases: cell-based
[1] = tested on: Klebsiella pneumoniae: Ciprofloxacin-resistant isolate, ESBL, clinical isolate (KP-3700); assay: MIC determination (CLSI), KP-3700
Procedure, shortened: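 MIC measured by broth dilution according to CLSI M7-A7 and M100-S18 standards. Test organism was a ciprofloxacin-resistant, ESBL-expressing clinical isolate.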

[2] = tested on: Acinetobacter baumanii/haemolyticus: Multidrug-resistant clinical isolate (AB-3167); assay: MIC determination (CLSI), AB-3167; conditions: for MIC: Acinetobacter baumannii
Procedure, shortened: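 Multidrug-resistant clinical isolate AB-3167 (A. baumannii/haemolyticus) tested for minimum inhibitory concentration following CLSI dilution susceptibility standards M7-A7 and M100-S18.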

[3] = tested on: Escherichia coli EC-1: VOGEL, mouse virulent; assay: MIC determination (CLSI), EC-1; conditions: for MIC: Escherichia coli
Procedure, shortened: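 E. coli Vogel, a mouse-virulent strain (EC-1), was tested. MICs were set by dilution susceptibility testing per CLSI standards M7-A7/M100-S18.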

[4] = tested on: Pseudomonas aeruginosa UI-18: Wild-type (PA-7); assay: MIC determination (CLSI), PA-7; conditions: for MIC: Pseudomonas aeruginosa
Procedure, shortened: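 MIC by dilution method per CLSI M7-A7 and M100-S18 guidelines. Strain: wild-type Pseudomonas aeruginosa UI-18.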

[5] = Table 1, MIC, read-out: AB-3167 (MIC)
[6] = Table 1, MIC, read-out: PA-7 (MIC)
[7] = Acinetobacter baumanii/haemolyticus multidrug-resistant clinical isolate AB-3167
[8] = Escherichia coli EC-1 VOGEL, mouse virulent
[9] = Pseudomonas aeruginosa UI-18 wild-type PA-7
[10] = Acinetobacter baumanii/haemolyticus AB-3167
[11] = Pseudomonas aeruginosa UI-18 (PA-7)

| SMILES | KP-3700 MIC [1] | AB-3167 MIC [2, 7] | EC-1 MIC [3, 8] | PA-7 MIC [4, 9] | other results |
| --- | --- | --- | --- | --- | --- |
| COc1cc(CCC(C)(C(=O)NO)S(C)(=O)=O)ccc1-c1ccc(F)cc1 (centres unmarked) [Example 20, 4-(4′-Fluoro-2-methoxybiphenyl-4-yl)-N-hydroxy-2-methyl-2-(methylsulfonyl)butanamide] | 8 µg/mL |  |  |  | MIC [2, 5]: ≥ 64 µg/mL; MIC ([3]; read-out: EC-1: (MIC)): 1 µg/mL (≈ 2.53 µM); MIC [4, 6]: 16 µg/mL (≈ 40.5 µM) |
| Cc1ccc(COc2ccc(CCC(C)(C(=O)NO)S(C)(=O)=O)cc2)cn1 (centres unmarked) [Example 270, N-hydroxy-2-methyl-4-{4-[(6-methylpyridin-3-yl)methoxy]phenyl}-2-(methylsulfonyl)butanamide] | ≧64 mg/L |  |  |  | MIC ([2]; Table 3, read-out: AB-3167 MIC): ≥ 64 µg/mL; MIC ([3]; read-out: EC-1 MIC): ≥ 64 µg/mL; MIC ([4]; Table 3, read-out: PA-7 MIC): 32 µg/mL (≈ 81.5 µM) |
| CC(CCc1ccc(OCCCC2CCCC2)cc1)(C(=O)NO)S(C)(=O)=O (centres unmarked) [Example 313, 4-[4-(3-cyclopentylpropoxy)phenyl]-N-hydroxy-2-methyl-2-(methylsulfonyl)butanamide] | 16 µg/mL |  |  |  | MIC ([2]; Table 3, read-out: AB-3167 MIC): 2 µg/mL (≈ 5.03 µM); MIC ([3]; read-out: EC-1 MIC): 4 µg/mL (≈ 10.1 µM); MIC ([4]; Table 3, read-out: PA-7 MIC): 16 µg/mL (≈ 40.2 µM) |
| CC(CCc1ccc(-c2ccc(Cl)cc2Cl)cc1)(C(=O)NO)S(C)(=O)=O (racemic) [Example 70] | 2 µg/mL | 32 µg/mL | 1 µg/mL | 1 µg/mL |  |
| COc1cccc(-c2ccc(CCC(C)(C(=O)NO)S(C)(=O)=O)cn2)c1F (centres unmarked) [Example 134] | 16 µg/mL | ≧64 mg/L | 4 µg/mL | 4 µg/mL |  |
| Cn1cc(-c2ccc(CCC(C)(C(=O)NO)S(C)(=O)=O)cc2)cn1 (centres unmarked) [Example 101] | 32 µg/mL | ≧64 mg/L | 32 µg/mL | 8 µg/mL |  |
| COc1ccc(-c2ccc(CCC(C)(C(=O)NO)S(C)(=O)=O)cc2)c(OC)c1 (racemic) [Example 65] | 2 µg/mL | 32 µg/mL | 1 µg/mL | 2 µg/mL |  |
| CC(CCc1ccc(-c2ccc(F)cc2)cn1)(C(=O)NO)S(C)(=O)=O (centres unmarked) [Example 164] | 32 µg/mL | ≧64 mg/L | 32 µg/mL | 4 µg/mL |  |
| COc1ccc(-c2ccc(CCC(C)(C(=O)NO)S(C)(=O)=O)cc2)cc1F (racemic) [Example 66] | 8 µg/mL | 16 µg/mL | 1 µg/mL | 1 µg/mL |  |
| COc1ccc(-c2ccc(CCC(C)(C(=O)NO)S(C)(=O)=O)cc2)c(C)n1 (racemic) [Example 86] | 32 µg/mL | ≧64 mg/L | 8 µg/mL | 4 µg/mL |  |
| COc1ccc(CCC(C)(C(=O)NO)S(C)(=O)=O)cc1 (centres unmarked) [Example 135] | ≧64 mg/L | ≧64 mg/L | ≧64 mg/L | 32 µg/mL |  |
| CS(=O)(=O)C(CCc1ccc(-c2ccccc2)cc1)C(=O)NO (centres unmarked) [Example 36] | 16 µg/mL | 32 µg/mL | 16 µg/mL | 2 µg/mL |  |
| CC(CCc1ccc(-c2ccc(F)cc2)nc1)(C(=O)NO)S(C)(=O)=O (centres unmarked) [Example 119] | ≧64 mg/L | ≧64 mg/L | 16 µg/mL | 8 µg/mL |  |
| CC(CCc1ccc(OCCC2CC2)cc1)(C(=O)NO)S(C)(=O)=O (racemic) [Example 17, (+/−)-4-[4-(2-Cyclopropylethoxy)phenyl]-N-hydroxy-2-methyl-2-(methylsulfonyl)butanamide] | ≧64 mg/L |  |  |  | MIC [2, 5]: 32 µg/mL (≈ 90 µM); MIC ([3]; read-out: EC-1: (MIC)): 32 µg/mL (≈ 90 µM); MIC [4, 6]: 8 µg/mL (≈ 22.5 µM) |
| Cc1cc(C)cc(COc2ccc(CCC(C)(C(=O)NO)S(C)(=O)=O)cc2)c1 (centres unmarked) [Example 257, 4-{4-[(3,5-dimethylbenzyl)oxy]phenyl}-N-hydroxy-2-methyl-2-(methylsulfonyl)butanamide] | 32 µg/mL |  |  |  | MIC ([2]; Table 3, read-out: AB-3167 MIC): ≥ 64 µg/mL; MIC ([3]; read-out: EC-1 MIC): 4 µg/mL (≈ 9.86 µM); MIC ([4]; Table 3, read-out: PA-7 MIC): 32 µg/mL (≈ 78.9 µM) |
| CCC(CC)COc1ccc(CCC(C)(C(=O)NO)S(C)(=O)=O)cc1 (centres unmarked) [Example 239, 4-[4-(2-ethylbutoxy)phenyl]-N-hydroxy-2-methyl-2-(methylsulfonyl)butanamide] | ≧64 mg/L |  |  |  | MIC ([2]; Table 3, read-out: AB-3167 MIC): 4 µg/mL (≈ 10.8 µM); MIC ([3]; read-out: EC-1 MIC): 16 µg/mL (≈ 43.1 µM); MIC ([4]; Table 3, read-out: PA-7 MIC): 8 µg/mL (≈ 21.5 µM) |
| CS(=O)(=O)C(CCc1ccc(-c2ccc(C#N)cc2)cc1)C(=O)NO (centres unmarked) [Example 28] | ≧64 mg/L | ≧64 mg/L | 32 µg/mL | 2 µg/mL |  |
| CCCCOc1ccc(CCC(C)(C(=O)NO)S(C)(=O)=O)cc1 (centres unmarked) [Example 236, 4-(4-butoxyphenyl)-N-hydroxy-2-methyl-2-(methylsulfonyl)butanamide] | ≧64 mg/L |  |  |  | MIC ([2]; Table 3, read-out: AB-3167 MIC): 32 µg/mL (≈ 93.2 µM); MIC ([3]; read-out: EC-1 MIC): 16 µg/mL (≈ 46.6 µM); MIC ([4]; Table 3, read-out: PA-7 MIC): 8 µg/mL (≈ 23.3 µM) |
| CC(CCc1ccc(-c2c(F)cccc2F)cc1)(C(=O)NO)S(C)(=O)=O (racemic) [Example 54] | 16 µg/mL | 16 µg/mL | 4 µg/mL | 1 µg/mL |  |
| Cn1ccnc1-c1ccc(-c2ccc(CCC(C)(C(=O)NO)S(C)(=O)=O)cc2)cc1 (centres unmarked) [Example 92] | 32 µg/mL | ≧64 mg/L | 16 µg/mL | 32 µg/mL |  |
| CCc1ccccc1-c1ccc(CCC(C)(C(=O)NO)S(C)(=O)=O)cc1 (racemic) [Example 69] | ≧64 mg/L | ≧64 mg/L | 16 µg/mL | 16 µg/mL |  |
| COc1ccc(-c2ccc(CCC(C)(C(=O)NO)S(C)(=O)=O)cc2)cn1 (racemic) [Example 72] | 32 µg/mL | ≧64 mg/L | 8 µg/mL | 4 µg/mL |  |
| CC(CCc1ccc(-c2ccc(OCCO)c(F)c2F)cc1)(C(=O)NO)S(C)(=O)=O (centres unmarked) [Example 147] | 8 µg/mL | 32 µg/mL | 2 µg/mL | 1 µg/mL |  |
| C[C@@](CCc1ccc(-c2ccccc2)cc1)(C(=O)NO)S(C)(=O)=O [Example 7, (2R)-4-Biphenyl-4-yl-N-hydroxy-2-methyl-2-(methylsulfonyl)butanamide] | 2 µg/mL |  |  |  | MIC [2, 5]: 16 µg/mL (≈ 46.1 µM); MIC ([3]; read-out: EC-1: (MIC)): 0.5 µg/mL (≈ 1.44 µM); MIC [4, 6]: 0.5 µg/mL (≈ 1.44 µM) |
| C[C@@](CCc1ccc(-c2cc3ccccc3o2)cc1)(C(=O)NO)S(C)(=O)=O [Example 214] | 4 µg/mL |  |  |  | AB-3167 MIC [2, 10]: 8 µg/mL; EC-1 MIC ([3]; Escherichia coli EC-1): 0.125 µg/mL; PA-7 MIC [4, 11]: 8 µg/mL |
| CC(C)(O)c1ccc(-c2ccc(CCC(C)(C(=O)NO)S(C)(=O)=O)cc2)cc1 (centres unmarked) [Example 230] | 32 µg/mL |  |  |  | AB-3167 MIC [2, 10]: ≧64 mg/L; EC-1 MIC ([3]; Escherichia coli EC-1): 8 µg/mL; PA-7 MIC [4, 11]: 8 µg/mL |
| CC(CCc1ccc(OCCOc2ccccc2)cc1)(C(=O)NO)S(C)(=O)=O (centres unmarked) [Example 248, N-hydroxy-2-methyl-2-(methylsulfonyl)-4-[4-(2-phenoxyethoxy)phenyl]butanamide] | 8 µg/mL |  |  |  | MIC ([2]; Table 3, read-out: AB-3167 MIC): 32 µg/mL (≈ 78.5 µM); MIC ([3]; read-out: EC-1 MIC): 2 µg/mL (≈ 4.91 µM); MIC ([4]; Table 3, read-out: PA-7 MIC): 32 µg/mL (≈ 78.5 µM) |
| CC(CCc1ccc(OCc2nc3ccccc3s2)cc1)(C(=O)NO)S(C)(=O)=O (centres unmarked) [Example 277, 4-[4-(1,3-benzothiazol-2-ylmethoxy)phenyl]-N-hydroxy-2-methyl-2-(methylsulfonyl)butanamide] | 16 µg/mL |  |  |  | MIC ([2]; Table 3, read-out: AB-3167 MIC): ≥ 64 µg/mL; MIC ([3]; read-out: EC-1 MIC): 4 µg/mL (≈ 9.21 µM); MIC ([4]; Table 3, read-out: PA-7 MIC): 32 µg/mL (≈ 73.6 µM) |
| CC(CCc1ccc(-c2ccccc2C#N)cc1)(C(=O)NO)S(C)(=O)=O (centres unmarked) [Example 105] | 32 µg/mL | ≧64 mg/L | 8 µg/mL | 16 µg/mL |  |
